Measurements published in ChEMBL document CHEMBL1131216, “Anhydrolide macrolides. 2. Synthesis and antibacterial activity of 2,3-anhydro-6-O-methyl 11,12-carbazate erythromycin A analogues” (1998).
Values after ≈ are worked out from the molar mass of the structure shown.

Experiments:
Assay type in all cases: functional
Haemophilus influenzae = experiment: In vitro antibacterial activity of DILL strain of Gram negative bacteria Haemophilus influenzae
Streptococcus pneumoniae [1] = experiment: In vitro antibacterial activity of 5649 strain of Gram positive bacteria Streptococcus pneumoniae
Streptococcus pneumoniae [2] = experiment: In vitro antibacterial activity of 5979 strain of Gram positive bacteria Streptococcus pneumoniae
Streptococcus pneumoniae [3] = experiment: In vitro antibacterial activity of ATCC 6303 strain of Gram positive bacteria Streptococcus pneumoniae
Streptococcus pyogenes [4] = experiment: In vitro antibacterial activity of 930 strain of Gram positive bacteria Streptococcus pyogenes
Streptococcus pyogenes [5] = experiment: In vitro antibacterial activity of EES61 strain of Gram positive bacteria Streptococcus pyogenes
Streptococcus pyogenes [6] = experiment: In vitro antibacterial activity of PIU2584 strain of Gram positive bacteria Streptococcus pyogenes
Staphylococcus aureus [7] = experiment: In vitro antibacterial activity of A-5278 strain of Gram positive bacteria Staphylococcus aureus
Staphylococcus aureus [8] = experiment: In vitro antibacterial activity of 6538P strain of Gram positive bacteria Staphylococcus aureus
Staphylococcus aureus [9] = experiment: In vitro antibacterial activity of A5177 strain of Gram positive bacteria Staphylococcus aureus

| SMILES | MIC (Haemophilus influenzae) [µg/mL] | MIC (Streptococcus pneumoniae [1]) [µg/mL] | MIC (Streptococcus pneumoniae [2]) [µg/mL] | MIC (Streptococcus pneumoniae [3]) [µg/mL] | MIC (Streptococcus pyogenes [4]) [µg/mL] | MIC (Streptococcus pyogenes [5]) [µg/mL] | MIC (Streptococcus pyogenes [6]) [µg/mL] | MIC (Staphylococcus aureus [7]) [µg/mL] | MIC (Staphylococcus aureus [8]) [µg/mL] | MIC (Staphylococcus aureus [9]) [µg/mL] |
| --- | --- | --- | --- | --- | --- | --- | --- | --- | --- | --- |
| CC[C@H]1OC(=O)/C(C)=C/[C@H](C)[C@@H](O[C@@H]2O[C@H](C)C[C@H](N(C)C)[C@H]2O)[C@@](C)(OC)C[C@@H](C)C(=O)[C@H](C)[C@H]2N(NCc3ccc(SC)cc3)C(=O)O[C@]12C | 8 (≈ 10.7 µM) | 0.5 (≈ 0.668 µM) | 64 (≈ 85.6 µM) | 0.03 (≈ 0.0401 µM) | 64 (≈ 85.6 µM) | 0.03 (≈ 0.0401 µM) | 1 (≈ 1.34 µM) | > 100 | 0.39 (≈ 0.521 µM) |  |
| CC[C@H]1OC(=O)/C(C)=C/[C@H](C)[C@@H](O[C@@H]2O[C@H](C)C[C@H](N(C)C)[C@H]2O)[C@@](C)(OC)C[C@@H](C)C(=O)[C@H](C)[C@H]2N(NCCc3ccc(Oc4ccccc4)cc3)C(=O)O[C@]12C | > 64 | 2 (≈ 2.48 µM) | 16 (≈ 19.8 µM) | 0.25 (≈ 0.309 µM) | 8 (≈ 9.9 µM) | 0.25 (≈ 0.309 µM) | 2 (≈ 2.48 µM) | 25 (≈ 30.9 µM) | 1.56 (≈ 1.93 µM) | 1.56 (≈ 1.93 µM) |
| CC[C@H]1OC(=O)/C(C)=C/[C@H](C)[C@@H](O[C@@H]2O[C@H](C)C[C@H](N(C)C)[C@H]2O)[C@@](C)(OC)C[C@@H](C)C(=O)[C@@H](C)[C@H]2N(NCCCc3ccccc3)C(=O)O[C@]12C | > 128 | 8 (≈ 11 µM) | 16 (≈ 21.9 µM) | 2 (≈ 2.74 µM) | 8 (≈ 11 µM) | 2 (≈ 2.74 µM) | 8 (≈ 11 µM) | 25 (≈ 34.2 µM) | 12.5 (≈ 17.1 µM) |  |
| CC[C@H]1OC(=O)/C(C)=C/[C@H](C)[C@@H](O[C@@H]2O[C@H](C)C[C@H](N(C)C)[C@H]2O)[C@@](C)(OC)C[C@@H](C)C(=O)[C@H](C)[C@H]2N(NCCCc3ccnc4ccccc34)C(=O)O[C@]12C | 2 (≈ 2.56 µM) | 1 (≈ 1.28 µM) | > 64 | 0.004 (≈ 0.00512 µM) | > 64 | 0.004 (≈ 0.00512 µM) | 0.5 (≈ 0.64 µM) | > 100 | 0.2 (≈ 0.256 µM) | 0.1 (≈ 0.128 µM) |
| CC[C@H]1OC(=O)/C(C)=C/[C@H](C)[C@@H](O[C@@H]2O[C@H](C)C[C@H](N(C)C)[C@H]2O)[C@@](C)(OC)C[C@@H](C)C(=O)[C@H](C)[C@H]2N(NCCCc3ccccc3N)C(=O)O[C@]12C | 16 (≈ 21.5 µM) |  | > 128 | 0.03 (≈ 0.0403 µM) | 128 (≈ 172 µM) | 0.06 (≈ 0.0805 µM) | 1 (≈ 1.34 µM) | > 100 | 0.39 (≈ 0.524 µM) | 0.39 (≈ 0.524 µM) |
| CC[C@H]1OC(=O)/C(C)=C/[C@H](C)[C@@H](O[C@@H]2O[C@H](C)C[C@H](N(C)C)[C@H]2O)[C@@](C)(OC)C[C@@H](C)C(=O)[C@H](C)[C@H]2N(NCc3cc([N+](=O)[O-])ccc3O)C(=O)O[C@]12C | 4 (≈ 5.24 µM) | 0.25 (≈ 0.328 µM) | > 128 | 0.03 (≈ 0.0393 µM) | > 128 | 0.015 (≈ 0.0197 µM) | 0.25 (≈ 0.328 µM) | > 100 | 0.1 (≈ 0.131 µM) |  |
| CC[C@H]1OC(=O)/C(C)=C/[C@H](C)[C@@H](O[C@@H]2O[C@H](C)C[C@H](N(C)C)[C@H]2O)[C@@](C)(OC)C[C@@H](C)C(=O)[C@H](C)[C@H]2N(NCc3cccnc3)C(=O)O[C@]12C | 8 (≈ 11.4 µM) | 1 (≈ 1.42 µM) | > 64 | 0.06 (≈ 0.0854 µM) | > 64 | 0.03 (≈ 0.0427 µM) | 1 (≈ 1.42 µM) | > 100 | 0.39 (≈ 0.555 µM) | 0.39 (≈ 0.555 µM) |
| CC[C@H]1OC(=O)/C(C)=C/[C@H](C)[C@@H](O[C@@H]2O[C@H](C)C[C@H](N(C)C)[C@H]2O)[C@@](C)(OC)C[C@@H](C)C(=O)[C@H](C)[C@H]2N(NCc3ccccc3)C(=O)O[C@]12C | 8 (≈ 11.4 µM) | 1 (≈ 1.42 µM) | > 64 | 0.06 (≈ 0.0855 µM) | > 64 | 0.03 (≈ 0.0427 µM) | 1 (≈ 1.42 µM) | > 100 | 0.39 (≈ 0.556 µM) | 0.2 (≈ 0.285 µM) |
| CC[C@H]1OC(=O)/C(C)=C/[C@H](C)[C@@H](O[C@@H]2O[C@H](C)C[C@H](N(C)C)[C@H]2O)[C@@](C)(OC)C[C@@H](C)C(=O)[C@H](C)[C@H]2N(NCCCc3ccc(F)cc3)C(=O)O[C@]12C | 16 (≈ 21.4 µM) | 1 (≈ 1.34 µM) | 64 (≈ 85.6 µM) | 0.06 (≈ 0.0802 µM) | 64 (≈ 85.6 µM) | 0.03 (≈ 0.0401 µM) | 1 (≈ 1.34 µM) | 50 (≈ 66.8 µM) | 0.39 (≈ 0.521 µM) | 0.2 (≈ 0.267 µM) |
| CC[C@H]1OC(=O)/C(C)=C/[C@H](C)[C@@H](O[C@@H]2O[C@H](C)C[C@H](N(C)C)[C@H]2O)[C@@](C)(OC)C[C@@H](C)C(=O)[C@H](C)[C@H]2N(NCCCc3ccc(N)cc3)C(=O)O[C@]12C | 4 (≈ 5.37 µM) | 1 (≈ 1.34 µM) | > 128 | 0.03 (≈ 0.0403 µM) | > 128 | 0.03 (≈ 0.0403 µM) | 1 (≈ 1.34 µM) | > 100 | 0.39 (≈ 0.524 µM) |  |
| CC[C@H]1OC(=O)/C(C)=C/[C@H](C)[C@@H](O[C@@H]2O[C@H](C)C[C@H](N(C)C)[C@H]2O)[C@@](C)(OC)C[C@@H](C)C(=O)[C@H](C)[C@H]2N(NCc3cccc(O)c3)C(=O)O[C@]12C | 4 (≈ 5.57 µM) | 1 (≈ 1.39 µM) | > 128 | 0.03 (≈ 0.0418 µM) | > 128 | 0.03 (≈ 0.0418 µM) | 0.5 (≈ 0.696 µM) | > 100 | 0.2 (≈ 0.279 µM) | 0.1 (≈ 0.139 µM) |
| CC[C@H]1OC(=O)/C(C)=C/[C@H](C)[C@@H](O[C@@H]2O[C@H](C)C[C@H](N(C)C)[C@H]2O)[C@@](C)(OC)C[C@@H](C)C(=O)[C@H](C)[C@H]2N(NCCCc3cccc(N)c3)C(=O)O[C@]12C | 4 (≈ 5.37 µM) |  | > 128 | 0.03 (≈ 0.0403 µM) | > 128 | 0.03 (≈ 0.0403 µM) | 1 (≈ 1.34 µM) | > 100 | 0.2 (≈ 0.268 µM) | 0.2 (≈ 0.268 µM) |
| CC[C@H]1OC(=O)/C(C)=C/[C@H](C)[C@@H](O[C@@H]2O[C@H](C)C[C@H](N(C)C)[C@H]2O)[C@@](C)(OC)C[C@@H](C)C(=O)[C@H](C)[C@H]2N(NCCCc3ccccc3[N+](=O)[O-])C(=O)O[C@]12C | 8 (≈ 10.3 µM) | 1 (≈ 1.29 µM) | 128 (≈ 165 µM) | 0.03 (≈ 0.0387 µM) | 64 (≈ 82.6 µM) | 0.03 (≈ 0.0387 µM) | 0.5 (≈ 0.645 µM) | > 100 | 0.1 (≈ 0.129 µM) | 0.01 (≈ 0.0129 µM) |
| CC[C@H]1OC(=O)/C(C)=C/[C@H](C)[C@@H](O[C@@H]2O[C@H](C)C[C@H](N(C)C)[C@H]2O)[C@@](C)(OC)C[C@@H](C)C(=O)[C@H](C)[C@H]2N(NCCCn3cnc(-c4ccccc4)c3)C(=O)O[C@]12C | 8 (≈ 10.1 µM) | 0.5 (≈ 0.628 µM) | > 128 | 0.03 (≈ 0.0377 µM) | 128 (≈ 161 µM) | 0.03 (≈ 0.0377 µM) | 1 (≈ 1.26 µM) | > 100 | 0.2 (≈ 0.251 µM) |  |
| CC[C@H]1OC(=O)/C(C)=C/[C@H](C)[C@@H](O[C@@H]2O[C@H](C)C[C@H](N(C)C)[C@H]2O)[C@@](C)(OC)C[C@@H](C)C(=O)[C@H](C)[C@H]2N(NCc3c(O)ccc4ccccc34)C(=O)O[C@]12C | 8 (≈ 10.4 µM) | 0.25 (≈ 0.326 µM) | 32 (≈ 41.7 µM) | 0.03 (≈ 0.0391 µM) | 32 (≈ 41.7 µM) | 0.06 (≈ 0.0781 µM) | 0.5 (≈ 0.651 µM) | 100 (≈ 130 µM) | 0.2 (≈ 0.26 µM) |  |
| CC[C@H]1OC(=O)/C(C)=C/[C@H](C)[C@@H](O[C@@H]2O[C@H](C)C[C@H](N(C)C)[C@H]2O)[C@@](C)(OC)C[C@@H](C)C(=O)[C@H](C)[C@H]2N(NCc3ccc(Cl)cc3)C(=O)O[C@]12C | 16 (≈ 21.7 µM) | 1 (≈ 1.36 µM) | 32 (≈ 43.5 µM) | 0.06 (≈ 0.0815 µM) | 32 (≈ 43.5 µM) | 0.03 (≈ 0.0407 µM) | 1 (≈ 1.36 µM) | 100 (≈ 136 µM) | 0.2 (≈ 0.272 µM) | 0.2 (≈ 0.272 µM) |
